Experimental data reported in patent publication US10988477B2 (Merck Patent GmbH, priority 2018, dated 2021).

Biological target: GCN2 kinase (Homo sapiens, UniProt Q9P2K8)
Assay: GCN2 enzyme inhibition assay (Transcreener ADP2 fluorescence polarization)
Assay type: biochemical
Settings: Enzyme activity for compounds of Formula IV; Ki(app), 280 μM ATP, 25° C.
Protocol: Compounds were screened for their ability to inhibit GCN2 kinase activity using a Transcreener® ADP^2 fluorescence polarization assay that detects ADP levels (BellBrook Labs, WI). Assays were carried out in a buffer consisting of 25 mM Tris-HCl (pH 7.5), 50 mM NaCl, 10 mM MgCl2 and 1 mM DTT. Final substrate concentrations were 280 μM ATP and 200 μM peptidic substrate ([…]-OH [(RS)7], Bachem, Switzerland). Assays were carried out at 25° C. in the presence of a (typical) final concentration of 4 nM GCN2 kinase. An assay buffer containing GCN2 kinase and (RS)7 was prepared. 4.7 μL of this stock solution was placed per well of a black, low volume, 384-well microtitre plate (e.g. catalogue number 3676, Corning Inc., NY). To this was added […] of DMSO containing serial dilutions of the test compound (typical final concentrations of test compound were 0 to 8 μM). The plate was incubated for 10 minutes at 25° C. prior to the addition of 4.7 μL of ATP stock buffer to initiate the enzyme reaction. The reaction was allowed to proceed for 1 hour at 25° C., prior to the addition of 10 μL detection buffer (consisting of appropriate concentrations of ADP^2 antibody and ADP Alexa633 tracer in 1× stop and detect buffer as supplied by BellBrook Labs). […] Percentage inhibition of enzyme activity was then calculated at each compound dose. IC50 and Ki(app) (using known assay and kinetic parameters) values were calculated from percentage inhibition data using a non-linear, tight-binding algorithm. All data analysis was undertaken using the Screener® software package (Genedata, Switzerland).

Chain of GCN2 kinase (Q9P2K8 whole entry): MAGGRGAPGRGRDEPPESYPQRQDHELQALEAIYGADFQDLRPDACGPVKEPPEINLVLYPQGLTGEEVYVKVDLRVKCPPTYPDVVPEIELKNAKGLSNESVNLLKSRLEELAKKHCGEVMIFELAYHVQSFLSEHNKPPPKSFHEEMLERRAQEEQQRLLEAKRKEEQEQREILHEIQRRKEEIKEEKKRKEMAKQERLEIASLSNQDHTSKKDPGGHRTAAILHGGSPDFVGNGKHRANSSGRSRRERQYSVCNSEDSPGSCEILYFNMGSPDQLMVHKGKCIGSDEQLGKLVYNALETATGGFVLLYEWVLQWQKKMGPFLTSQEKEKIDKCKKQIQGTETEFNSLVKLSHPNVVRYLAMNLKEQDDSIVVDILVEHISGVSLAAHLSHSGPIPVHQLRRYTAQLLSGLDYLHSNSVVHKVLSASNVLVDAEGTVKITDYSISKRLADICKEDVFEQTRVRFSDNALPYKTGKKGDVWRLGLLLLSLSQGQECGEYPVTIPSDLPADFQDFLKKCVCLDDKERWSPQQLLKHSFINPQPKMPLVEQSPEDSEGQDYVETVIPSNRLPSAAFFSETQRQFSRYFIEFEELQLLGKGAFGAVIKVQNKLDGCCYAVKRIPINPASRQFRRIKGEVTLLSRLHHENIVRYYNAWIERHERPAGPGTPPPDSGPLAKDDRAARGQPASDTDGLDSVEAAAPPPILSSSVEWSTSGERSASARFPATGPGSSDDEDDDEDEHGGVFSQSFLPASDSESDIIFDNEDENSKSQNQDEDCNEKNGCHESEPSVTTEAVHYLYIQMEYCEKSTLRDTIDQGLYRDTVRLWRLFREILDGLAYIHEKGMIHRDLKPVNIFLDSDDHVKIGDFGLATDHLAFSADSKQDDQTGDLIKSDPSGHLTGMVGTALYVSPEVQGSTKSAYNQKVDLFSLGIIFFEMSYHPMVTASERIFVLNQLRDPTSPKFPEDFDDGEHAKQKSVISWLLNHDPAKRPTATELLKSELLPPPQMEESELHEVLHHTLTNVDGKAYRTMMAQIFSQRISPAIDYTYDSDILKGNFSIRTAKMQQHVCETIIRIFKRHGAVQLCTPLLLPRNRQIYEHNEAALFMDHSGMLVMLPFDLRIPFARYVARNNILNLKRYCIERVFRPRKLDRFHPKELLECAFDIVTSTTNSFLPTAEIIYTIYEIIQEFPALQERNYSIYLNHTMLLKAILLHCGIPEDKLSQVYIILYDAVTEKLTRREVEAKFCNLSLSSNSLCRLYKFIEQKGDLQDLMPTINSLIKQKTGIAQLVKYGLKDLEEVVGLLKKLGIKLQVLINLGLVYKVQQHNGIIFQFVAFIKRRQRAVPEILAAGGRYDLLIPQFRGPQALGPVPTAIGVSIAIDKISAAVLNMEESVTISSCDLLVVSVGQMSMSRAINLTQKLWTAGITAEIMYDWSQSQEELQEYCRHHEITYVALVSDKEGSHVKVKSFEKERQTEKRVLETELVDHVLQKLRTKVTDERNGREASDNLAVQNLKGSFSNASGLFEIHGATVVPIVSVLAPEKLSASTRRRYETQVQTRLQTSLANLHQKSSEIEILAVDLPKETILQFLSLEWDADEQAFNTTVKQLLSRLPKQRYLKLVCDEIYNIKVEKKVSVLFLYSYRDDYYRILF

Row | Ki | Compound
1 | 10 to 100 nM | FC(F)(F)c1cn2c(-c3ccnc(N4CCOC(c5cn[nH]c5)C4)n3)cnc2cn1 (single isomer, unassigned) [IV-185, 2-(1H-Pyrazol-4-yl)-4-(4-(6-(trifluoromethyl)imidazo[1,2-a]pyrazin-3-yl)pyrimidin-2-yl)morpholine]
2 | < 10 nM | FC(F)(F)c1cn2c(-c3ccnc(N4CCOC(c5cn[nH]c5)C4)n3)cnc2cn1 (single isomer, unassigned) [IV-186, 2-(1H-Pyrazol-4-yl)-4-(4-(6-(trifluoromethyl)imidazo[1,2-a]pyrazin-3-yl)pyrimidin-2-yl)morpholine]

Same assay, conditions: compounds of Formula II; 280 μM ATP, 4 nM GCN2 kinase

Row | Ki | Compound
3 | 10 to 1000 nM | CC1C(N=S(C)(C)=O)CCCN1c1cc(-c2cnc3ccc(C(F)F)nn23)ncn1 (single isomer, unassigned) [II-594, ((1-(6-(6-(Difluoromethyl)imidazo[1,2-b]pyridazin-3-yl)pyrimidin-4-yl)-2-methylpiperidin-3-yl)imino)dimethyl-λ^6-sulfanone]
4 | 10 to 1000 nM | CC(C)(O)C1CCCN(c2cc(-c3cnc4ccc(C(F)F)nn34)ncn2)C1 (single isomer, unassigned) [II-613, 2-(1-(6-(6-(Difluoromethyl)imidazo[1,2-b]pyridazin-3-yl)pyrimidin-4-yl)piperidin-3-yl)propan-2-ol]
5 | 10 to 1000 nM | CC(C)(O)C1CCCN(c2cc(-c3cnc4ccc(C(F)F)nn34)ncn2)C1 (single isomer, unassigned) [II-614, 2-(1-(6-(6-(Difluoromethyl)imidazo[1,2-b]pyridazin-3-yl)pyrimidin-4-yl)piperidin-3-yl)propan-2-ol]
6 | 10 to 1000 nM | CC1CC(CS(C)(=O)=O)C(C)N(c2cc(-c3cnc4ccc(C(F)F)nn34)ncn2)C1 (single isomer, unassigned) [II-625, 6-(Difluoromethyl)-3-[6-[2,5-dimethyl-3-(methylsulfonylmethyl)-1-piperidyl]pyrimidin-4-yl]imidazo[1,2-b]pyridazine]
7 | < 10 nM | CC1CC(CS(C)(=O)=O)C(C)N(c2cc(-c3cnc4ccc(C(F)F)nn34)ncn2)C1 (single isomer, unassigned) [II-626, 6-(difluoromethyl)-3-[6-[2,5-dimethyl-3-(methylsulfonylmethyl)-1-piperidyl]pyrimidin-4-yl]imidazo[1,2-b]pyridazine]
8 | 10 to 1000 nM | CC1CC(N=S(C)(C)=O)C(C)N(c2cc(-c3cnc4ccc(C(F)F)nn34)ncn2)C1 (single isomer, unassigned) [II-630, ((1-(6-(6-(Difluoromethyl)imidazo[1,2-b]pyridazin-3-yl)pyrimidin-4-yl)-2,5-dimethylpiperidin-3-yl)imino)dimethyl-λ^6-sulfanone]
9 | 10 to 1000 nM | CC1CCN(c2cc(-c3cnc4ccc(C(F)F)nn34)ncn2)CC1N=S(C)(C)=O (single isomer, unassigned) [II-632, ((1-(6-(6-(Difluoromethyl)imidazo[1,2-b]pyridazin-3-yl)pyrimidin-4-yl)-4-methylpiperidin-3-yl)imino)dimethyl-λ^6-sulfanone]
10 | 10 to 1000 nM | CC1CCN(c2cc(-c3cnc4ccc(C(F)F)nn34)ncn2)CC1N=S(C)(C)=O (single isomer, unassigned) [II-633, ((1-(6-(6-(Difluoromethyl)imidazo[1,2-b]pyridazin-3-yl)pyrimidin-4-yl)-4-methylpiperidin-3-yl)imino)dimethyl-λ^6-sulfanone]
11 | 10 to 1000 nM | CS(=N)(=O)CC1CCCN(c2cc(-c3cnc4ccc(C(F)F)nn34)ncn2)C1 (single isomer, unassigned) [II-636, ((1-(6-(6-(Difluoromethyl)imidazo[1,2-b]pyridazin-3-yl)pyrimidin-4-yl)piperidin-3-yl)methyl)(imino)(methyl)-λ^6-sulfanone]
12 | 10 to 1000 nM | CS(=N)(=O)CC1CCCN(c2cc(-c3cnc4ccc(C(F)F)nn34)ncn2)C1 (single isomer, unassigned) [II-637, ((1-(6-(6-(Difluoromethyl)imidazo[1,2-b]pyridazin-3-yl)pyrimidin-4-yl)piperidin-3-yl)methyl)(imino)(methyl)-λ^6-sulfanone]
13 | 10 to 1000 nM | CS(=N)(=O)CC1CCCN(c2cc(-c3cnc4ccc(C(F)F)nn34)ncn2)C1 (single isomer, unassigned) [II-638, ((1-(6-(6-(Difluoromethyl)imidazo[1,2-b]pyridazin-3-yl)pyrimidin-4-yl)piperidin-3-yl)methyl)(imino)(methyl)-λ^6-sulfanone]
14 | 10 to 1000 nM | CS(=N)(=O)CC1CCCN(c2cc(-c3cnc4ccc(C(F)F)nn34)ncn2)C1 (single isomer, unassigned) [II-639, ((1-(6-(6-(Difluoromethyl)imidazo[1,2-b]pyridazin-3-yl)pyrimidin-4-yl)piperidin-3-yl)methyl)(imino)(methyl)-λ^6-sulfanone]
15 | 10 to 1000 nM | CCS(C)(=O)=NC1CC(C)CN(c2cc(-c3cnc4ccc(C(F)F)nn34)ncn2)C1 (single isomer, unassigned) [II-640, ((1-(6-(6-(Difluoromethyl)imidazo[1,2-b]pyridazin-3-yl)pyrimidin-4-yl)-5-methylpiperidin-3-yl)imino)(ethyl)(methyl)-λ^6-sulfanone]
16 | 10 to 1000 nM | CCS(C)(=O)=NC1CC(C)CN(c2cc(-c3cnc4ccc(C(F)F)nn34)ncn2)C1 (single isomer, unassigned) [II-641, ((1-(6-(6-(Difluoromethyl)imidazo[1,2-b]pyridazin-3-yl)pyrimidin-4-yl)-5-methylpiperidin-3-yl)imino)(ethyl)(methyl)-λ^6-sulfanone]
17 | < 10 nM | CCS(C)(=O)=NC1CC(C)CN(c2cc(-c3cnc4ccc(C(F)F)nn34)ncn2)C1 (single isomer, unassigned) [II-642, ((1-(6-(6-(Difluoromethyl)imidazo[1,2-b]pyridazin-3-yl)pyrimidin-4-yl)-5-methylpiperidin-3-yl)imino)(ethyl)(methyl)-λ^6-sulfanone]
18 | < 10 nM | CCS(C)(=O)=NC1CC(C)CN(c2cc(-c3cnc4ccc(C(F)F)nn34)ncn2)C1 (single isomer, unassigned) [II-643, ((1-(6-(6-(Difluoromethyl)imidazo[1,2-b]pyridazin-3-yl)pyrimidin-4-yl)-5-methylpiperidin-3-yl)imino)(ethyl)(methyl)-λ^6-sulfanone]
19 | 10 to 1000 nM | CC1CC(N=S(C)(=O)C2CC2)CN(c2cc(-c3cnc4ccc(C(F)F)nn34)ncn2)C1 (single isomer, unassigned) [II-644, Cyclopropyl((1-(6-(6-(difluoromethyl)imidazo[1,2-b]pyridazin-3-yl)pyrimidin-4-yl)-5-methylpiperidin-3-yl)imino)(methyl)-λ^6-sulfanone]
20 | 10 to 1000 nM | CC1CC(N=S(C)(=O)C2CC2)CN(c2cc(-c3cnc4ccc(C(F)F)nn34)ncn2)C1 (single isomer, unassigned) [II-645, Cyclopropyl((1-(6-(6-(difluoromethyl)imidazo[1,2-b]pyridazin-3-yl)pyrimidin-4-yl)-5-methylpiperidin-3-yl)imino)(methyl)-λ^6-sulfanone]
21 | 10 to 1000 nM | CC1CC(N=S(C)(=O)C2CC2)CN(c2cc(-c3cnc4ccc(C(F)F)nn34)ncn2)C1 (single isomer, unassigned) [II-646, Cyclopropyl((1-(6-(6-(difluoromethyl)imidazo[1,2-b]pyridazin-3-yl)pyrimidin-4-yl)-5-methylpiperidin-3-yl)imino)(methyl)-λ^6-sulfanone]
22 | 10 to 1000 nM | CC1CC(N=S(C)(=O)C2CC2)CN(c2cc(-c3cnc4ccc(C(F)F)nn34)ncn2)C1 (single isomer, unassigned) [II-647, Cyclopropyl((1-(6-(6-(difluoromethyl)imidazo[1,2-b]pyridazin-3-yl)pyrimidin-4-yl)-5-methylpiperidin-3-yl)imino)(methyl)-λ^6-sulfanone]
23 | 10 to 1000 nM | CCC1CC(N=S(C)(C)=O)CN(c2cc(-c3cnc4ccc(C(F)F)nn34)ncn2)C1 (single isomer, unassigned) [II-651, ((1-(6-(6-(Difluoromethyl)imidazo[1,2-b]pyridazin-3-yl)pyrimidin-4-yl)-5-ethylpiperidin-3-yl)imino)dimethyl-λ^6-sulfanone]
24 | 10 to 1000 nM | CC1CN(c2cc(-c3cnc4ccc(C(F)F)nn34)ncn2)C(C)C(c2cn[nH]c2)N1 (single isomer, unassigned) [II-653, 6-(Difluoromethyl)-3-(6-(2,5-dimethyl-3-(1H-pyrazol-4-yl)piperazin-1-yl)pyrimidin-4-yl)imidazo[1,2-b]pyridazine]
25 | 10 to 1000 nM | CC1CC(C(N)=O)C(C)N(c2cc(-c3cnc4ccc(C(F)(F)F)nn34)ncn2)C1 (single isomer, unassigned) [II-718, 2,5-Dimethyl-1-[6-[6-(trifluoromethyl)imidazo[1,2-b]pyridazin-3-yl]pyrimidin-4-yl]piperidine-3-carboxamide]
26 | 10 to 1000 nM | CC1CC(N=S(C)(C)=O)CN(c2cc(-c3cnc4ccc(C(F)F)nn34)c(F)cn2)C1 (single isomer, unassigned) [II-722, ((1-(4-(6-(Difluoromethyl)imidazo[1,2-b]pyridazin-3-yl)-5-fluoropyridin-2-yl)-5-methylpiperidin-3-yl)imino)dimethyl-λ^6-sulfanone]
